Measured values from ChEMBL document CHEMBL1154486, “Synthesis and evaluation of in vitro anti-tuberculosis activity of N-substituted glycolamides” (2009).
Values after ≈ are worked out from the molar mass of the structure shown.

The compounds below were run on Mycobacterium tuberculosis (assay: Antimycobacterial activity against Mycobacterium tuberculosis H37Rv ATCC 27294 by microplate alamar blue assay).
Type: functional

SMILES | MIC
O=C(CO)N1CCCC1 | 25.5 µg/mL (≈ 197 µM)
O=C(CO)N1CCCC(O)C1 (centres undefined) | 60 µg/mL (≈ 377 µM)
O=C(CO)N1CCN(C(=O)CO)CC1 | 15.8 µg/mL (≈ 77.9 µM)
CCC(CO)NC(=O)CO (centres undefined) | 29.5 µg/mL (≈ 200 µM)
O=C(CO)N1CCOCC1 | 13.8 µg/mL (≈ 94.7 µM)
O=C(CO)NN1CCOCC1 | 57 µg/mL (≈ 356 µM)
O=C(CO)NCCO | 87.5 µg/mL (≈ 735 µM)
O=C(CO)N1CCC(O)CC1 | 33.2 µg/mL (≈ 209 µM)
CC(CO)(CO)NC(=O)CO | 67.5 µg/mL (≈ 414 µM)
O=C(CO)N1CCN(CCO)CC1 | 14.2 µg/mL (≈ 75.7 µM)
CC[C@@H](CO)NCCN[C@@H](CC)CO [ETHAMBUTOL] | 5 µg/mL (≈ 24.5 µM)
O=C(CO)N(CCO)CCO | 12.5 µg/mL (≈ 76.6 µM)
O=C(CO)NCCc1ccccc1 | 74 µg/mL (≈ 413 µM)
O=C(CO)N1CCCCC1 | 38.8 µg/mL (≈ 271 µM)
